Columns and labels:
[1] = system: RL2 antibody binding to p135; experiment: Blocking of RL2 antibody immunoprecipitation of p135 by added sugars; design: species or system mouse; settings: 0.3 M added during the RL2 immunoprecipitation step (FIG. 3)
Procedure: Islets (100/condition) were incubated for 60 min with either 3 mM glucose (G3) or 28 mM glucose following pre-incubation with 5 mM streptozotocin (STZ). At the end of the incubation period, O-glycosylated proteins were immunoprecipitated with RL2 antibody in the presence of 0.3 M N-acetylglucosamine (GlcNAc), 0.3 M N-acetylgalactosamine (GalNAc), or 0.3 M glucosamine (GlcN) and analyzed by Western blotting as described in FIG. 1.
At the end of the experiment, all supernatant was removed from the tubes or dishes. One ml of ice-cold lysis buffer (50 mM HEPES, pH 7.40, 150 mM NaCl, 1% Triton X-100, 5 mM EDTA, 5 mM EGTA, 20 mM NaF, 20 mM Na4P2O7, 1 mM NaVO4, 1 mg/ml bacitracin, 1 mM phenylmethylsulfonylfluoride, 1 μg/ml leupeptin, 1 μg/ml aprotinin) was added to each tube or dish. Cells were scraped on ice into 1.5 ml conical screw cap Eppendorf tubes. Borosilicate tubes containing islets were vortexed for 30 sec and placed on ice for 30 min. Islet samples were vortexed for an additional minute before transfer to 1.5-ml conical screw cap Eppendorf tubes. All subsequent immunoprecipitation steps were performed at 4° C. Samples were centrifuged at 10,000×g for 15 min. […]

isolated islets = experiment: Insulin secretion from isolated islets (radioimmunoassay); type: cell-based, rat; settings: for Insulin (secretion in isolated islets): islets isolated in 11 mM glucose and 1 mM L-glutamine
Procedure: (§1) In a typical experiment, islets were isolated aseptically from 3-4 male Sprague-Dawley rats. During surgery, the common bile duct of each pancreas was cannulated, and the pancreas was inflated with 20 ml of Hank's Balanced Salt Solution (HBSS). The distended pancreas was excised, and lymph nodes, fat, blood vessels, and bile ducts were removed under a stereo dissecting microscope. Tissue was chopped extensively and rinsed 5-6 times with HBSS. The tissue was digested with collagenase P (3 mg/ml tissue) at 37° C. for 3-4 min using a wrist action shaker. Digested tissue was rinsed 3-4 times with HBSS, and islets were purified on a discontinuous Ficoll gradient consisting of 27%, 23%, 20.5%, and 11% Ficoll in (25 mM) HEPES-HBSS buffer. Islets were harvested from the gradient and washed once with HBSS. Islets were washed 6 times in DMEM supplemented with 25 mM HEPES pH 7.40, 25 mM NaHCO3, 0.1% bovine serum albumin, 3 mM glucose, and 1 mM L-glutamine (complete DMEM). This isolation procedure typically provided 300-400 islets per rat, which were then used as described below. In selected experiments, islets were isolated as described above, except that all isolation buffers were supplemented t o contain 11 mM glucose and 1 mM L-glutamine.
(§2) Freshly isolated islets were placed into siliconized 16×100-mm round bottom, screw-cap tubes and pre-incubated for 30 min in 1 ml of complete DMEM. For each experiment, 100 islets were placed into each tube. Pre-incubation and all subsequent incubations were performed at 37° C. under an atmosphere of 95% O2/5% CO2. After 30 min, pre-incubation buffer was aspirated, and islets were incubated with complete DMEM supplemented with the appropriate secretagogue. At the end of the incubation period, the entire supernatant was removed for insulin radioimmunoassay. Islets were processed for subsequent immunoprecipitation as described below. For each experiment, insulin secretion in the control sample was set at 100% and all other results were expressed as percentages of control.
Films were photographed using a Sony digital camera, and intensities of bands present on films were quantitated using the program NIH Image. All results are expressed as the mean±SEM, using the Windows-compatible version 2.98 of the program FigP (Biosoft, St. Louis, Mo.). Statistical analysis was performed using the same program. Data were analyzed by one-way analysis of variance followed by multiple comparisons between the means using the least significant difference test. A probability of p<0.05 was considered to indicate statistical significance.

[2] = system: p135 (135 kD O-glycosylated protein) in isolated islets; experiment: p135 O-glycosylation in isolated islets (RL2 immunoprecipitation and Western blotting); type: cell-based, rat; settings: for increase in p135 O-glycosylation: 5 mM, 60 min, islets isolated in 11 mM glucose and 1 mM L-glutamine; for effect on glucose-induced p135 O-glycosylation: 100 μM DON with 28 mM glucose
Procedure: as §1, §2
At the end of the experiment, all supernatant was removed from the tubes or dishes. One ml of ice-cold lysis buffer (50 mM HEPES, pH 7.40, 150 mM NaCl, 1% Triton X-100, 5 mM EDTA, 5 mM EGTA, 20 mM NaF, 20 mM Na4P2O7, 1 mM NaVO4, 1 mg/ml bacitracin, 1 mM phenylmethylsulfonylfluoride, 1 μg/ml leupeptin, 1 μg/ml aprotinin) was added to each tube or dish. Cells were scraped on ice into 1.5 ml conical screw cap Eppendorf tubes. Borosilicate tubes containing islets were vortexed for 30 sec and placed on ice for 30 min. Islet samples were vortexed for an additional minute before transfer to 1.5-ml conical screw cap Eppendorf tubes. All subsequent immunoprecipitation steps were performed at 4° C. Samples were centrifuged at 10,000×g for 15 min. The supernatant was transferred to a second 1.5-ml conical Eppendorf tube, and O-glycosylated proteins were immunoprecipitated for 2 h on a rocker with 2 μl of mouse monoclonal RL2 antibody, which selectively binds to O-glycosylated protein (21,22). After 2 h, 20 μl of protein A trisacryl beads (Pierce) preadsorbed with 20 μg of rabbit anti-mouse antibody (Sigma) were added to the tubes and the incubation was continued for an additional 2 hours. At the end of the incubation, beads were washed once with Wash Buffer 1 (150 mM NaCl, 10 mM HEPES, pH 7.40, 1% Triton X-100, and 0.1% SDS) and once with Wash Buffer 2 (10 mM HEPES, pH 7.40, 1% Triton X-100, and 0.1% SDS). After the final washing step, 25 μl of 2× sample buffer (100 mM Tris, pH 6.80, 4% SDS, 20% glycerol, and 20 μg/liter bromophenol blue) was added to each tube. Samples were vortexed for 30 sec, boiled for 5 min, and stored at −20° C. prior to subsequent analysis.
Samples were loaded onto 7.5% SDS-polyacrylamide gels. Colored molecular weight markers (Amersham) were run on each gel. Proteins were separated for 1 h at 175 V at room temperature using a Bio-Rad Mini-PROTEAN II dual slab cell. […]

β-cells = settings: 50-100 mg/kg administered to a rat; development of diabetes; cited from earlier work
β-TC3 cells = experiment: Protein O-glycosylation in β-TC3 cells (RL2 immunoprecipitation and Western blotting); type: cell-based; settings: 5 mM, 60 min after 30 min in 0 mM glucose (FIG. 8)
Procedure: β-TC3 cells (passage 37) were obtained form the University of Pennsylvania Diabetes Center from Dr. D. Hanahan (University of California, San Francisco). β-TC3 cells were cultured in 10-cm dishes in the presence of RPMI 1640 medium supplemented with 10% fetal bovine serum, penicillin (75 μg/ml), streptomycin (50 μg/ml), and 2 mM L-glutamine. Cells were trypsinized and subcloned weekly. Media were changed twice weekly and on the day prior to an experiment, and insulin responsiveness to glucose and carbachol was routinely monitored. Cells were used between passages 38 and 55.
β-TC3 cells in 10-cm dishes were washed three times in Krebs'-HEPES buffer (25 mM HEPES, pH 7.40, 115 mM NaCl, 24 mM NaHCO3, 5 mM KCl, 2.5 mM CaCl2, 1 mM MgCl2) supplemented with 0.1% bovine serum albumin and 1 mM L-glutamine. Cells were pre-incubated in 5 ml of the same buffer for 30 min at 37° C. under an atmosphere of 95% air/5% CO2. After 30 min, the pre-incubation buffer was aspirated and cells were incubated at 37° C. under an atmosphere of 95% air/5% CO2 with 5 ml of Krebs'-HEPES buffer supplemented with the appropriate secretagogue. At the end of the incubation period, supernatant was removed for insulin radioimmunoassay. Cells left in the dishes were processed for subsequent immunoprecipitation as described below.
At the end of the experiment, all supernatant was removed from the tubes or dishes. […]

Compound: CC(=O)N[C@H]1C(O)O[C@H](CO)[C@@H](O)[C@@H]1O (stereo partly drawn) [GlcNAc, N-acetylglucosamine]
- inhibition of RL2 immunoprecipitation of p135 [1]: completely inhibited

Compound: CC(=O)N[C@H]1C(O)O[C@H](CO)[C@H](O)[C@@H]1O (stereo partly drawn) [GalNAc, N-acetylgalactosamine]
- inhibition of RL2 immunoprecipitation of p135 [1]: neither GalNAc nor glucosamine added at the same concentration as GlcNAc prevented

Compound: CN(N=O)C(=O)N[C@H]1C(O)O[C@H](CO)[C@@H](O)[C@@H]1O (mixture of isomers) [streptozotocin]
- Insulin (secretion in isolated islets) (isolated islets; 5 mM, DON 0, 60 min, control 3 mM glucose = 100): 147.1 ± 16.8%
- Insulin (secretion in isolated islets) (isolated islets; 5 mM, DON 100 (μM), 60 min, control 3 mM glucose = 100): 115.6 ± 7.8%
- reversibility of p135 O-glycosylation ([2]; 5 mM pre-incubation 30 min, then 3 or 28 mM glucose 30 min, then 3 mM glucose 30 min (FIG. 5)): not readily reversible
- stimulation of p135 O-glycosylation in the presence of DON ([2]; 5 mM with 100 μM DON, 60 min (FIG. 4)): able to increase p135 O-glycosylation
- increase in p135 O-glycosylation ([2]; compared to 3 mM glucose control (FIG. 7 experiment)): 361.3±78.8%
- increase in p135 O-glycosylation ([2]; versus 3 mM glucose control (FIG. 2)): 333.9±66.8%
- stimulation of p135 O-glycosylation ([2]; islets isolated in low glucose and no added L-glutamine, concentration not given): no consistent increase in p135 O-glycosylation
- time to death of most of the β-cells (β-cells): ≤ 8 h
- O-glycosylation response of β-TC3 cells (β-TC3 cells): fail to undergo increased O-glycosylation

Compound: [N-]=[N+]=CC(=O)CC[C@H](N)C(=O)O [DON, 6-diazo-5-oxonorleucine]
- effect on glucose-induced insulin secretion (isolated islets; 100 μM DON with 28 mM glucose, 60 min): no significant effect
- Insulin (secretion in isolated islets) (isolated islets; DON 100 (μM) in 3 mM glucose, 60 min, control 3 mM glucose without DON = 100): 160.6 ± 50.5%
- effect on glucose-induced p135 O-glycosylation ([2]; 60 min (FIG. 4)): inhibited
- effect on glucose-induced p135 O-glycosylation ([2]; 60 min (FIG. 4), listed as 5-diazo-oxo-norleucine): completely blocked

Source: US6361995B1, “Protection of pancreatic β-cells during islet isolation and assessment of islet viability and candidate diabetes drugs after islet isolation” (NAB Research Foundation, priority 1999, dated 2002)
